Data taken from patent publication US8338414B2, “Immunosuppressive agent and anti-tumor agent comprising heterocyclic compound as active ingredient” (Zenyaku Kogyo KabushikiKaisha, priority 2005, dated 2012).
Like-named read-outs stand apart in the source and are kept apart here.

Experiments:
mouse spleen cells = assay: Proliferation inhibition assay for mouse spleen cells; format: cell-based; details: 3 days, Alamar Blue
Procedure: Spleen cells (2×10^6 cells/mL) prepared from C57BL/6N female mice (8 weeks old, purchased from Charles River Laboratories Japan Inc.) were suspended in RPMI 1640 medium (containing 10% fetal bovine serum, 10 mM HEPES, 1 mM pyruvic acid, 4.5 g/L glucose, 100 units/mL penicillin, and 0.1 mg/mL streptomycin), and seeded in wells of a 96 well plate at 0.225 mL per well. Serial dilutions of test substances were added to respective wells, and then concanavalin A (Con A, 3 μg/mL), lipopolysaccharide (LPS, 100 μg/mL), or an anti-mouse IgM antibody (100 μg/mL) were added. Thereafter, they were incubated under conditions of carbon dioxide 5% at a temperature 37° C. for 3 days. Next, Alamar Blue solution was added at 50 μL per 150 μL, and after having cultured for one day, the fluorescence intensity at 590 nm using an excitation wavelength of 530 nm was determined by Cytoflour 4000 (Applied Biosystems).

[1] = tested on: human peripheral blood mononuclear cells; assay: Proliferation inhibition assay for human peripheral blood mononuclear cells; format: cell-based; details: Homo sapiens, 72 h; PBMC, anti-CD3 and anti-CD28 antibody, 3 days, Alamar Blue
Procedure: 4 mL of blood collected from healthy subjects was placed on 3 mL of MonoPoly Resolving Medium, and after centrifugation, the mononuclear cell (PBMC) fraction was collected. After washing with saline, PBMC (1×10^5 cells/mL) was suspended in RPMI 1640 medium (containing 10% fetal bovine serum, 10 mM HEPES, 1 mM pyruvic acid, and 4.5 g/L glucose). Next, after having added an anti-CD28 antibody (1 μg/mL) to the suspension, they were seeded on an anti-human CD3 T cell activation plate (BD Bioscience) at a capacity of 0.135 mL per well. Then, serial dilutions of test substances were added to respective wells, and incubated under conditions of carbon dioxide 5% at a temperature 37° C. After 3 days, Alamar Blue solution was added at 50 μL per well, and after incubation for one day, a fluorescence intensity at 590 nm using an excitation wavelength of 530 nm was determined by Cytoflour 4000 (Applied Biosystems).

[2] = tested on: Rabbit synoviocytes HIG-82; assay: Inhibition assay for proliferation of rabbit synoviocyte; format: cell-based; details: HIG-82, 3 days, Alamar Blue
Procedure: Rabbit synoviocytes HIG-82 suspended in HAM medium (containing 10% fetal bovine serum, 25 mM HEPES, and 0.1 mg/mL kanamycin) (with 4×10^4 cells/mL) were seeded in wells of a 96 well plate at 0.135 mL per well. Then, 15 μL of each of serial dilutions of test substances was added to a respective well, and incubated under conditions of carbon dioxide 5% at a temperature 37° C. Alamar Blue solution was added at 50 μL per well on day 0 and day 3, and incubated for one day, and thereafter fluorescence intensity at 590 nm using an excitation wavelength of 530 nm was determined by Cytoflour 4000 (Applied Biosystems).

[3] = tested on: allogeneic mixed lymphocyte reaction; assay: Allogeneic mixed lymphocyte reaction; format: cell-based, mouse; details: Mus musculus, Lymphocyte; C57BL/6N spleen stimulator cells, BALB/c lymph node responder cells, 86 hours, BrdU
Procedure: Spleen cells prepared from C57BL/6N female mice (8-10 weeks old, purchased from Charles River Laboratories Japan Inc.) and peripheral lymph node mononuclear cells prepared from BALB/c female mice (8-10 weeks old, purchased from Charles River Laboratories Japan Inc.) were used as stimulator cells and responder cells, respectively. The respective cells were suspended in RPMI 1640 medium (containing 10% fetal bovine serum, 100 units/mL penicillin, and 0.1 mg/mL streptomycin) (with 2×10^6 cells/mL).

Daudi cells = assay: Proliferation inhibitory activity on hematologic neoplasm cells, Daudi; format: cell-based; details: 3 days, Alamar Blue
Procedure: (§1) Daudi cells (5×10^5 cells/mL), Jurkat cells (5×10^5 cells/mL), THP-1 cells (5×10^5 cells/mL), U 937 cells (5×10^5 cells/mL), and HL 60 cells (5×10^5 cells/mL) suspended in RPMI 1640 medium (containing 10% fetal bovine serum, 10 mM HEPES, 1 mM pyruvic acid, 4.5 g/L glucose, 100 units/mL penicillin, and 0.1 mg/mL streptomycin) were seeded in 96 well plates at a capacity of 0.135 mL per well. Serial dilutions of test substances were added to respective wells at 15 μL/well, and incubated under conditions of carbon dioxide 5% at 37° C. for 3 days. Thereafter, Alamar Blue solution was added at 50 μL, and after incubation for one day, the fluorescence intensity at 590 nm using an excitation wavelength of 530 nm was determined by Cytoflour 4000 (Applied Biosystems).

Jurkat cells = assay: Proliferation inhibitory activity on hematologic neoplasm cells, Jurkat; format: cell-based; details: 3 days, Alamar Blue
Procedure: as §1

HL 60 cells = assay: Proliferation inhibitory activity on hematologic neoplasm cells, HL60; format: cell-based; details: Homo sapiens, HL-60, 72 h; 3 days, Alamar Blue
Procedure: as §1

THP-1 cells = assay: Proliferation inhibitory activity on hematologic neoplasm cells, THP-1; format: cell-based; details: 3 days, Alamar Blue
Procedure: as §1

U 937 cells = assay: Proliferation inhibitory activity on hematologic neoplasm cells, U937; format: cell-based; details: Homo sapiens, U-937, 72 h; 3 days, Alamar Blue
Procedure: as §1

[4] = 72 h, LPS 100 μg/mL, read-out: Inhibition of LPS response
[5] = 72 h, anti-mouse IgM antibody 100 μg/mL, read-out: Inhibition of Anti-IgM antibody response
[6] = 72 h, concanavalin A 3 μg/mL, read-out: Inhibition of Con A response

Compound	melting point	IC50 (mouse spleen cells; [4]) [nM]	IC50 (mouse spleen cells; [5]) [nM]	IC50 (mouse spleen cells; [6]) [nM]	further results
Cc1cc2nc(C(F)F)n(-c3nc(N4CCOCC4)nc(N4CCOCC4)n3)c2cc1C [Production Example 29, 2-(5,6-Dimethyl-2-difluoromethylbenzimidazol-1-yl)-4,6-dimorpholino-1,3,5-triazine]	217 to 220 °C	–	–	–	–
O=CN1CCN(c2nc(N3CCOCC3)nc(-n3c(C(F)F)nc4ccccc43)n2)CC1 [Production Example 33, 2-(2-Difluoromethylbenzimidazol-1-yl)-6-(4-formylpiperazin-1-yl)-4-morpholino-1,3,5-triazine]	228 to 230 °C	–	–	–	–
C[C@@H]1OCCN(c2nc(N3CCOCC3)nc(-n3cnc4ccccc43)n2)[C@H]1C (relative stereo) [Compound 2, 2-(Benzimidazol-1-yl)-4-(trans-2,3-dimethylmorpholino)-6-morpholino-1,3,5-triazine]	147 to 150 °C	100 to 10000	100 to 10000	100 to 10000	–
Nc1cc(Cl)c2nc(C(F)F)n(-c3nc(N4CCOCC4)nc(N4CCCC4CO)n3)c2c1 (stereo not drawn) [Production Example 30, 2-(6-Amino-4-chloro-2-difluoromethylbenzimidazol-1-yl)-4-(2-hydroxymethylpyrrolidin-1-yl)-6-morpholino-1,3,5-triazine]	256 °C (dec.)	–	–	–	–
O=C1CN(c2nc(N3CCOCC3)nc(-n3c(C(F)F)nc4ccccc43)n2)CCN1 [Production Example 34, 2-(2-Difluoromethylbenzimidazol-1-yl)-4-morpholino-6-(3-oxopiperazin-1-yl)-1,3,5-triazine]	255 to 257 °C	–	–	–	–
CC1(C)CN(c2nc(N3CCOCC3)nc(-n3c(C(F)F)nc4ccc(N)cc43)n2)CCO1 [Compound 13, 2-(6-Amino-2-difluoromethylbenzimidazol-1-yl)-4-(2,2-dimethylmorpholino)-6-morpholino-1,3,5-triazine]	226 to 227 °C (dec.)	1 to 100	1 to 100	1 to 100	–
CC1CN(c2cc(N3CC(C)OC(C)C3)nc(-n3c(C(F)F)nc4cc(N)ccc43)n2)CC(C)O1 (stereo not drawn) [Compound 17, 2-(5-Amino-2-difluoromethylbenzimidazol-1-yl)-4,6-di(2,6-dimethylmorpholino)pyrimidine]	157 to 160 °C	10000 to 100000	100 to 10000	100 to 10000	–
Oc1ccc2c(nc(C(F)F)n2-c2nc(N3CCOCC3)nc(N3CCOCC3)n2)c1Cl [Production Example 31, 2-(4-Chloro-2-difluoromethyl-5-hydroxybenzimidazol-1-yl)-4,6-dimorpholino-1,3,5-triazine]	> 250 °C	–	–	–	–
O=C1CN(c2nc(N3CCOCC3)nc(-n3c(C(F)F)nc4ccccc43)n2)CC(=O)N1 [Production Example 35, 2-(2-Difluoromethylbenzimidazol-1-yl)-6-(3,5-dioxopiperazin-1-yl)-4-morpholino-1,3,5-triazine]	230 to 232 °C	–	–	–	–
Oc1ccc2c(c1)nc(C(F)F)n2-c1nc(N2CCOCC2)nc(N2CCOCC2)n1 [Compound 12, 2-(2-Difluoromethyl-5-hydroxybenzimidazol-1-yl)-4,6-dimorpholino-1,3,5-triazine]	272 to 274 °C	1 to 100	1 to 100	1 to 100	–
COc1ccc2c(c1)nc(C(F)F)n2-c1nc(N2CCOCC2)nc(N2CCOCC2)n1 [Compound 23, 2-(2-Difluoromethyl-5-methoxybenzimidazol-1-yl)-4,6-dimorpholino-1,3,5-triazine]	–	–	–	–	IC50 [1]: 19.2 nM; IC50 ([2]; Oryctolagus cuniculus, 72 h): 121 nM; IC50 [3]: 258 nM; IC50 (Daudi cells; Homo sapiens, Daudi, 72 h): 13.2 nM; IC50 (Jurkat cells; Homo sapiens, Jurkat, 72 h): 229 nM; IC50 (HL 60 cells): 139 nM; IC50 (THP-1 cells; Homo sapiens, THP-1, 72 h): 68.6 nM; IC50 (U 937 cells): 345 nM
FC(F)c1nc2ccccc2n1-c1nc(N2CCCCC2)nc(N2CCOCC2)n1 [Compound 7, 2-(2-Difluoromethylbenzimidazol-1-yl)-4-piperidino-6-morpholino-1,3,5-triazine]	190 to 192 °C	100 to 10000	100 to 10000	100 to 10000	–
ON1CCN(c2nc(N3CCOCC3)nc(-n3c(C(F)F)nc4ccccc43)n2)CC1 [Compound 26, 2-(2-Difluoromethylbenzimidazol-1-yl)-4-(4-hydroxypiperizin-1-yl)-6-morpholino-1,3,5-triazine]	–	–	–	–	IC50 (mouse spleen cells; LPS 100 μg/mL, read-out: Inhibition of LPS response): 1 to 100 nM; IC50 (mouse spleen cells; concanavalin A 3 μg/mL, read-out: Inhibition of Con A response): ≤ 1 nM; IC50 [2]: 2380 nM; IC50 (Daudi cells): 426 nM; IC50 (Jurkat cells): 3120 nM; IC50 (THP-1 cells): 865 nM
Nc1nc2ccccc2n1-c1nc(N2CCOCC2)cc(N2CCOCC2)n1 [Compound 5, 2-(2-Aminobenzimidazol-1-yl)-4,6-dimorpholinopyrimidine]	237 to 239 °C	100 to 10000	100 to 10000	100 to 10000	–
COC(=O)N1CCN(c2nc(N3CCOCC3)nc(-n3c(C(F)F)nc4ccccc43)n2)CC1 [Production Example 43, 2-(2-Difluoromethylbenzimidazol-1-yl)-4-(4-methoxycarbonylpiperazin-1-yl)-6-morpholino-1,3,5-triazine]	255 to 260 °C	–	–	–	–
C[C@@H]1OCCN(c2nc(N3CCOCC3)nc(-n3c(C(F)F)nc4ccc(N)cc43)n2)[C@@H]1C (relative stereo) [Compound 8, 2-(6-Amino-2-difluoromethylbenzimidazol-1-yl)-4-(cis-2,3-dimethylmorpholino)-6-morpholino-1,3,5-triazine]	220 to 222 °C (dec.)	100 to 10000	1 to 100	1 to 100	–
CCOc1ccc2nc(C(F)F)n(-c3nc(N4CCOCC4)nc(N4CCOCC4)n3)c2c1 [Compound 9, 2-(2-Difluoromethyl-6-ethoxybenzimidazol-1-yl)-4,6-dimorpholino-1,3,5-triazine]	222 to 224 °C	1 to 100	1 to 100	1 to 100	–
CC1(C)CN(c2cc(N3CCOCC3)nc(-n3c(C(F)F)nc4c(O)cccc43)n2)CCO1 [Compound 21, 2-(2-Difluoromethyl-4-hydroxybenzimidazol-1-yl)-4-(2,2-dimethylmorpholino)-6-morpholinopyrimidine]	185 to 187 °C	≤ 1	≤ 1	≤ 1	–
